The test system of series [1] is SKNSH cells. Description: SKNSH (human neuroblastoma) cell proliferation assay (ATPlite). It is filed as cell-based. To be noted: SK-N-SH, read-out: Inhibition of Cell Proliferation IC50, SKNSH. A digest of the protocol: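 SK-N-SH human neuroblastoma cells grown in RPMI with 10% FBS were pelleted, resuspended at 2×10^4 cells/mL, and plated at 3,000 cells per well (150 μL) in 96-well plates, then kept overnight at 37° C. in 5% CO2. Compounds in an 8-point 1:3 DMSO series were added as 0.75 μL aliquots.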
A general note: In ATP-based viability assays light output follows the ATP content of the culture.

Series [2] is described as follows: Relative solubility by turbidity in aqueous buffers (pH 1.5, 4.5, 6.8, 7.4). It is filed as physicochemical. To be noted: for turbidity threshold (L, M, H) 1.4: pH 1.5 (SGF); for turbidity threshold (L, M, H) 4.5: pH 4.5 (SIF); for turbidity threshold (L, M, H) 6.8: pH 6.8 (SIF); for turbidity threshold (L, M, H) 7.4: pH 7.4 (HEPES). A digest of the protocol: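 Twofold DMSO dilutions of a 25 mM stock were spiked into SGF (0.5M NaCl, pH 1.5), SIF (0.05M NaH2PO4, pH 4.5 and 6.8) or HEPES buffer (10 mM HEPES, 150 mM NaCl, pH 7.4). Absorbance was read at 490, 535 and 650 nm. The endpoint is the concentration crossing O.D. 0.01, averaged across wavelengths.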

The structures appear in SMILES notation.

On to `O=C(c1cnc(NC2CCC(F)(F)CC2)c(F)c1)c1c[nH]c2ncnc(NCC(F)(F)F)c12` [Compound P-4052, [6-[(4,4-difluorocyclohexyl)amino]-5-fluoro-3-pyridyl]-[4-(2,2,2-trifluoroethylamino)-7H-pyrrolo[2,3-d]pyrimidin-5-yl]methanone], for which the IC50 in series [1] is > 1 µM. In series [2], the “turbidity threshold (L, M, H) 1.4” value is reported as “L (low solubility if the threshold concentration is <31.3 μM)”; the “turbidity threshold (L, M, H) 4.5” value is on record as “L (low solubility if the threshold concentration is <31.3 μM)”; the “turbidity threshold (L, M, H) 6.8” value is on record as “L (low solubility if the threshold concentration is <31.3 μM)”; the “turbidity threshold (L, M, H) 7.4” value is “L (low solubility if the threshold concentration is <31.3 μM)”.

Consider `CNc1ncnc2[nH]cc(C(=O)c3cnc(NC4CCC(F)(F)CC4)c(F)c3)c12` [Compound P-4054, [6-[(4,4-difluorocyclohexyl)amino]-5-fluoro-3-pyridyl]-[4-(methylamino)-7H-pyrrolo[2,3-d]pyrimidin-5-yl]methanone], for which the IC50 in series [1] was < 10 µM. Besides, in series [2], the “turbidity threshold (L, M, H) 1.4” value is “H (high solubility if the threshold concentration is >250 μm)”; the “turbidity threshold (L, M, H) 4.5” value is given as “M (moderate solubility if the threshold concentration is 31.3 μM to 250 μM)”; the “turbidity threshold (L, M, H) 6.8” value is given as “M (moderate solubility if the threshold concentration is 31.3 μM to 250 μM)”; the “turbidity threshold (L, M, H) 7.4” value was “M (moderate solubility if the threshold concentration is 31.3 μM to 250 μM)”.

As for `CCNc1ncnc2[nH]cc(C(=O)c3cnc(NC4CCC(F)(F)CC4)c(F)c3)c12` [Compound P-4051, [6-[(4,4-difluorocyclohexyl)amino]-5-fluoro-3-pyridyl]-[4-(ethylamino)-7H-pyrrolo[2,3-d]pyrimidin-5-yl]methanone], in series [1], the IC50 was < 1 µM. Moreover, in series [2], the “turbidity threshold (L, M, H) 1.4” value is given as “H (high solubility if the threshold concentration is >250 μm)”; the “turbidity threshold (L, M, H) 4.5” value is listed as “M (moderate solubility if the threshold concentration is 31.3 μM to 250 μM)”; the “turbidity threshold (L, M, H) 6.8” value is recorded as “M (moderate solubility if the threshold concentration is 31.3 μM to 250 μM)”; the “turbidity threshold (L, M, H) 7.4” value is “L (low solubility if the threshold concentration is <31.3 μM)”.

In the case of `Nc1ncnc2[nH]cc(C(=O)c3ccc(NC4CCC(F)(F)CC4)nc3Cl)c12` [Compound P-4046, (4-amino-7H-pyrrolo[2,3-d]pyrimidin-5-yl)-[2-chloro-6-[(4,4-difluorocyclohexyl)amino]-3-pyridyl]methanone], in series [1], the IC50 is < 10 µM.

Consider `CCNc1ncnc2[nH]cc(C(=O)c3ccc(NC4CCC(F)(F)CC4)nc3Cl)c12` [Compound P-4050, [2-chloro-6-[(4,4-difluorocyclohexyl)amino]-3-pyridyl]-[4-(ethylamino)-7H-pyrrolo[2,3-d]pyrimidin-5-yl]methanone], for which, in series [1], the IC50 is < 1 µM. Also, in series [2], the “turbidity threshold (L, M, H) 1.4” value was “H (high solubility if the threshold concentration is >250 μm)”; the “turbidity threshold (L, M, H) 4.5” value is listed as “L (low solubility if the threshold concentration is <31.3 μM)”; the “turbidity threshold (L, M, H) 6.8” value is listed as “L (low solubility if the threshold concentration is <31.3 μM)”; the “turbidity threshold (L, M, H) 7.4” value is “L (low solubility if the threshold concentration is <31.3 μM)”.

On to `Nc1ncnc2[nH]cc(C(=O)c3ccc(Nc4ccc(C5CC5)nc4)nc3F)c12` [Compound P-4048, (4-amino-7H-pyrrolo[2,3-d]pyrimidin-5-yl)-[6-[(6-cyclopropyl-3-pyridyl)amino]-2-fluoro-3-pyridyl]methanone], for which, in series [1], the IC50 was < 1 µM. For the same compound, in series [2], the “turbidity threshold (L, M, H) 1.4” value is “H (high solubility if the threshold concentration is >250 μm)”; the “turbidity threshold (L, M, H) 4.5” value was “M (moderate solubility if the threshold concentration is 31.3 μM to 250 μM)”; the “turbidity threshold (L, M, H) 6.8” value is listed as “M (moderate solubility if the threshold concentration is 31.3 μM to 250 μM)”; the “turbidity threshold (L, M, H) 7.4” value was “M (moderate solubility if the threshold concentration is 31.3 μM to 250 μM)”.

`O=C(c1cnc(NC2CCC(F)(F)CC2)c(F)c1)c1c[nH]c2ncnc(NC3CC3)c12` [Compound P-4053, [4-(cyclopropylamino)-7H-pyrrolo[2,3-d]pyrimidin-5-yl]-[6-[(4,4-difluorocyclohexyl)amino]-5-fluoro-3-pyridyl]methanone]: the IC50 in series [1] is < 1 µM. Further, in series [2], the “turbidity threshold (L, M, H) 1.4” value was “H (high solubility if the threshold concentration is >250 μm)”; the “turbidity threshold (L, M, H) 4.5” value is “M (moderate solubility if the threshold concentration is 31.3 μM to 250 μM)”; the “turbidity threshold (L, M, H) 6.8” value is listed as “M (moderate solubility if the threshold concentration is 31.3 μM to 250 μM)”; the “turbidity threshold (L, M, H) 7.4” value is listed as “M (moderate solubility if the threshold concentration is 31.3 μM to 250 μM)”.

For the compound `CC(C)(O)CNc1ncnc2[nH]cc(C(=O)c3ccc(Nc4ccc(C5CC5)nc4)nc3F)c12` [Compound P-4049, [6-[(6-cyclopropyl-3-pyridyl)amino]-2-fluoro-3-pyridyl]-[4-[(2-hydroxy-2-methyl-propyl)amino]-7H-pyrrolo[2,3-d]pyrimidin-5-yl]methanone], the IC50 in series [1] was < 1 µM. Besides, in series [2], the “turbidity threshold (L, M, H) 1.4” value is given as “H (high solubility if the threshold concentration is >250 μm)”; the “turbidity threshold (L, M, H) 4.5” value is listed as “L (low solubility if the threshold concentration is <31.3 μM)”; the “turbidity threshold (L, M, H) 6.8” value is “L (low solubility if the threshold concentration is <31.3 μM)”; the “turbidity threshold (L, M, H) 7.4” value is “L (low solubility if the threshold concentration is <31.3 μM)”.

Values taken from patent US8901118B2, “Compounds and methods for kinase modulation, and indications therefor” (Plexxikon Inc., priority 2010, dated 2014).
